Test results published in ChEMBL document CHEMBL1201862, “PubChem BioAssay data set” (2004).
Where “and” joins values, the source holds several entries; their conditions need not be identical. Identical values can stand only once.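 Results reflect a 48-hour exposure of cells in 96-well plates to compound at five concentrations. At the GI50, growth is halved.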 Calls of active or inactive are those of the source. No stated cut-off is given here; in the data, active = GI50 up to about 1.1 µM and inactive = higher.

Legend:
Assay in all cases: NCI tumour cell line growth inhibition, 48 h
[1] = test system: Malme-3M
[2] = test system: OVCAR-3
[3] = test system: CCRF-CEM
[4] = test system: OVCAR-5
[5] = test system: PC-3
[6] = test system: K562
[7] = test system: M14
[8] = test system: EKVX
[9] = test system: OVCAR-4
[10] = test system: Hs-578T
[11] = test system: MOLT-4
[12] = test system: MCF7
[13] = test system: SK-MEL-28
[14] = test system: OVCAR-8
[15] = test system: UACC-62
[16] = test system: NCI-H522
[17] = test system: SW-620
[18] = test system: NCI-H23
[19] = test system: MDA-MB-231
[20] = test system: A549
[21] = test system: COLO 205
[22] = test system: IGROV-1
[23] = test system: RPMI-8226
[24] = test system: MDA-N
[25] = test system: HOP-92
[26] = test system: HCT-116
[27] = test system: SR
[28] = test system: HOP-62
[29] = test system: UO-31
[30] = test system: NCI-H226
[31] = test system: LOX IMVI
[32] = test system: SNB-19
[33] = test system: HT-29
[34] = test system: SK-MEL-2
[35] = test system: ACHN
[36] = test system: 786-0
[37] = test system: NCI/ADR-RES
[38] = test system: TK-10
[39] = test system: DU-145
[40] = test system: SF-295
[41] = test system: SNB-75
[42] = test system: SF-268
[43] = test system: U-251
[44] = test system: HCT-15
[45] = test system: A498
[46] = test system: SN12C
[47] = test system: SK-MEL-5
[48] = test system: MDA-MB-435
[49] = test system: SK-OV-3
[50] = test system: KM12
[51] = test system: SF-539
[52] = test system: CAKI-1
[53] = test system: RXF 393
[54] = test system: NCI-H460
[55] = test system: T47D
[56] = test system: UACC-257
[57] = test system: HCC 2998
[58] = test system: HL-60

Measured: GI50

C/C1=C\[C@H](C)C[C@H](C)OC(=O)C[C@H](c2ccc(O)cc2)NC(=O)[C@H](Cc2ccc(O)c(Br)c2)N(C)C(=O)[C@H](C)NC(=O)[C@@H](C)C1
inactive: [1] > 25 µM | [2] > 25 µM | [3] > 25 µM | [4] > 25 µM | [5] > 25 µM | [6] > 25 µM | [7] > 25 µM | [8] > 25 µM | [9] > 25 µM | [10] > 25 µM | [11] > 25 µM | [12] > 25 µM | [13] > 25 µM | [14] > 25 µM | [15] > 25 µM | [16] > 25 µM | [17] > 25 µM | [18] > 25 µM | [19] > 25 µM | [20] > 25 µM | [21] > 25 µM | [22] > 25 µM | [23] > 25 µM | [24] > 25 µM | [25] > 25 µM | [26] > 25 µM | [27] > 25 µM | [28] > 25 µM | [29] > 25 µM | [30] > 25 µM | [31] > 25 µM | [32] > 25 µM | [33] > 25 µM | [34] > 25 µM | [35] > 25 µM | [36] > 25 µM | [37] > 25 µM | [38] > 25 µM | [39] > 25 µM | [40] > 25 µM | [41] > 25 µM | [42] > 25 µM | [43] > 25 µM | [45] > 25 µM | [46] > 25 µM | [47] > 25 µM | [48] > 25 µM | [49] > 25 µM | [50] > 25 µM
> 25 µM: [44]

COc1cc(CC(C)N[C@@H](C)c2ccccc2)cc(OC)c1 (stereo not given in full)
inactive: [51] > 100 µM | [10] 72.1 µM | [52] > 100 µM | [16] > 100 µM | [34] > 100 µM | [53] > 100 µM | [50] > 100 µM

O=C(CC(C(=O)c1cccs1)c1ccccc1)c1ccccc1O (stereo not given)
8 µM: [44]
inactive: [2] 83 µM | [3] 2.55 µM | [4] > 100 µM | [51] 34.1 µM | [5] 14 µM | [6] 3.1 µM | [54] 48.1 µM | [7] 4 µM | [55] 9.66 µM | [8] 12.7 µM | [9] 16.4 µM | [10] 5.81 µM | [11] 7.08 µM | [52] 8.95 µM | [12] 9.86 µM | [13] 20 µM | [14] 9.62 µM | [15] 14.7 µM | [16] 3.21 µM | [17] 46 µM | [18] > 42.6 µM | [20] 13.1 µM | [21] > 50.7 µM | [22] 4.98 µM | [23] 12.8 µM | [24] 4.93 µM | [25] 7.6 µM | [26] 4.74 µM | [27] 9.27 µM | [28] 18.2 µM | [29] 18.5 µM | [30] > 57.7 µM | [31] 12.4 µM | [32] 23.9 µM | [33] 11.9 µM | [34] > 21.8 µM | [35] 11.3 µM | [36] 9.91 µM | [37] 6.01 µM | [38] > 41.1 µM | [39] 36.4 µM | [40] 8.67 µM | [41] > 20.6 µM | [53] 5.19 µM | [42] 8.28 µM | [43] 9.93 µM | [56] > 30.7 µM | [46] > 20.7 µM | [47] 9.48 µM | [48] 3.1 µM | [49] 8.57 µM | [50] 20.9 µM

CN1N=C(c2ccncc2)OC1c1cccc(C(F)(F)F)c1 (stereo not given)
inactive: [2] 71.1 µM | [3] > 100 µM | [4] > 100 µM | [51] 27.5 µM | [5] > 100 µM | [6] 96.8 µM | [54] > 100 µM | [7] > 100 µM | [55] 96.6 µM | [8] > 100 µM | [9] > 100 µM | [10] > 100 µM | [11] > 100 µM | [13] > 100 µM | [14] > 100 µM | [15] > 100 µM | [16] > 100 µM | [17] > 100 µM | [18] > 100 µM | [19] 41.2 µM | [20] > 100 µM | [21] > 100 µM | [22] > 100 µM | [23] > 100 µM | [24] > 100 µM | [26] 67.1 µM | [28] > 100 µM | [29] > 100 µM | [30] 58.9 µM | [31] > 100 µM | [32] > 100 µM | [33] > 100 µM | [57] > 100 µM | [34] > 100 µM | [35] > 100 µM | [36] > 100 µM | [37] > 100 µM | [58] 81.3 µM | [38] > 100 µM | [39] > 100 µM | [40] > 100 µM | [41] 4.36 µM | [53] > 100 µM | [42] > 100 µM | [43] > 100 µM | [56] > 100 µM | [45] > 100 µM | [46] > 100 µM | [47] > 100 µM | [48] > 100 µM | [49] > 100 µM | [50] > 100 µM
> 100 µM: [44]

CCCOc1c2cc(COC3OC(CO)C(O)C(O)C3O)cc1Cc1cc(COC3OC(CO)C(O)C(O)C3O)cc(c1OCCC)Cc1cc(COC3OC(CO)C(O)C(O)C3O)cc(c1OCCC)Cc1cc(COC3OC(CO)C(O)C(O)C3O)cc(c1OCCC)C2 (stereo not given)
inactive: [1] > 100 µM | [10] 54 µM and 39.1 µM | [11] 14.4 µM | [23] 50.7 µM and 54.3 µM | [25] 48.9 µM and 57.1 µM | [57] 45.6 µM and 57.8 µM and 32 µM | [37] > 100 µM and 92.7 µM

CC(=O)N1C(NN(C)C)CCN1c1ccccc1 (stereo not given)
> 10 µM: [44]
inactive: [1] > 10 µM | [3] > 10 µM | [5] > 10 µM | [6] > 10 µM | [7] > 10 µM | [55] > 10 µM | [8] > 10 µM | [9] > 10 µM | [11] > 10 µM | [52] > 10 µM | [12] > 10 µM | [13] > 10 µM | [14] > 10 µM | [15] > 10 µM | [17] > 10 µM | [18] > 10 µM | [19] > 10 µM | [20] > 10 µM | [21] > 10 µM | [22] > 10 µM | [23] > 10 µM | [25] > 10 µM | [27] > 10 µM | [28] > 10 µM | [33] > 10 µM | [57] > 10 µM | [36] > 10 µM | [58] > 10 µM | [38] > 10 µM | [39] > 10 µM | [40] > 10 µM | [41] > 10 µM | [53] > 10 µM | [42] > 10 µM | [56] > 10 µM | [46] > 10 µM | [47] > 10 µM | [48] > 10 µM | [49] > 10 µM | [50] > 10 µM

NC1CCCCC1.O=C(CP(=O)(O)O)NC(CC(=O)OCc1ccccc1)C(=O)OCc1ccccc1 (stereo not given)
> 100 µM: [44]
inactive: [1] > 100 µM | [2] > 100 µM | [3] > 100 µM | [4] > 100 µM | [51] > 100 µM | [5] 24.2 µM | [6] > 100 µM | [54] > 100 µM | [7] > 100 µM | [55] > 100 µM | [8] > 100 µM | [9] > 100 µM | [10] > 100 µM | [11] > 100 µM | [52] > 100 µM | [13] > 100 µM | [14] > 100 µM | [15] > 100 µM | [16] > 100 µM | [17] > 100 µM | [18] > 100 µM | [19] > 100 µM | [20] > 100 µM | [21] > 100 µM | [22] > 100 µM | [23] > 100 µM | [24] > 100 µM | [25] > 100 µM | [26] > 100 µM | [27] > 100 µM | [28] > 100 µM | [29] > 100 µM | [30] > 100 µM | [32] > 100 µM | [33] > 100 µM | [57] > 100 µM | [34] 4.85 µM | [35] > 100 µM | [36] > 100 µM | [37] > 100 µM | [58] > 100 µM | [39] > 100 µM | [40] > 100 µM | [41] 4.1 µM | [53] > 100 µM | [42] > 100 µM | [43] > 100 µM | [56] > 100 µM | [45] > 100 µM | [46] > 100 µM | [47] > 100 µM | [48] > 100 µM | [49] > 100 µM
